Test results reported in patent US12435091B2, “RNA-binding protein multimerization inhibitors and methods of use thereof” (THE UAB RESEARCH FOUNDATION, priority 2020, dated 2025).
Read-outs that look alike come from different tables or passages of the source.

Legend:
[1] = system: inflammatory cytokine mRNAs in astrocytes; test: inflammatory cytokine mRNAs in LPS-stimulated astrocytes; format: cell-based
Method: Next, the impact of SRI-42127 on induction of inflammatory cytokine mRNAs as depicted in FIG. 15, Panel B was assessed. A significant 3-4-fold suppression of mRNA for IL-1β, IL-6, CXCL1, and CCL2 was observed. […] All chemokines were likewise suppressed, including KC, CCL2, CCL3, CCL4, CXCL10, from 2.5 to 8.1-fold.

in vitro = details: human, liver microsomes
Method: Selected compounds were assessed for their aqueous solubility, Log D and mouse and human liver microsomal stability.

spinal cord injury = test: mid-thoracic contusion spinal cord injury in mice; format: in vivo
Method: Wild-type male mice were subjected to a mid-thoracic contusion injury and then treated with SRI-42127 (15 mg/kg) every 8 hours for 4 days, starting 1 hour after injury. […] Not to be bound by theory, similar to spinal cord injury, chronic pain signaling is triggered by activation of microglia and astroglia in the spinal cord and production of inflammatory mediators (e.g. TNF-α, IL-1β, IL-6, INOS, CCL2) that induce hyperexcitation of sensory neurons in the dorsal horn. Mice underwent sciatic nerve lesioning to produce a spared nerve injury and then received SRI-42127 (15 mg/kg) or vehicle every 6 hours for 4 days (starting 1 h after injury). Mechanical sensitivity was assessed at day 7 post-injury. […] Following this test, a subset of mice in the DMSO-treated group was given an acute administration of SRI-42127 (or DMSO) and their mechanical sensitivity was tested at 30 minutes and 60 minutes post-administration. Acute treatment with SRI-42127 reversed allodynia in these mice for at least 60 minutes (p<0.01, FIG. 21, Panel D).

HuR = molecular target: T1, HuR (Homo sapiens, UniProt Q15717); test: cell-based split firefly luciferase-HuR dimerization assay
T1 construct: expressed in transfected cells; host or cells: U251 glioma cells, doxycycline-inducible constructs
T1 sequence (Q15717 whole entry): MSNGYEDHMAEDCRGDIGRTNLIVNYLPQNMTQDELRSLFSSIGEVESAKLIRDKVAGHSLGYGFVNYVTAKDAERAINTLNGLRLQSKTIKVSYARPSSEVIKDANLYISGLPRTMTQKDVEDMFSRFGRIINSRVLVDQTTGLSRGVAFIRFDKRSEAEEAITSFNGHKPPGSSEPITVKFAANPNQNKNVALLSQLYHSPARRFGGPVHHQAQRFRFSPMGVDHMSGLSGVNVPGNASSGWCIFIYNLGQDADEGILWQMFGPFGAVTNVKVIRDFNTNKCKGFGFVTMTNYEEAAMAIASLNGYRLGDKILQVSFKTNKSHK
In short: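 U251 cells carrying HuR fused to N- or C-terminal split firefly luciferase halves (dimer reporter) or full-length Fluc (control); constructs induced with doxycycline 0.75 ug/ml for 48 h. Compounds at various concentrations vs vehicle for 6 h. Luciferin-driven luminescence read; mean+SD.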

U251 cell line = test: soft agar colony formation assay; format: cell-based; details: 3 uM
Method: (§1) The soft agar colony formation assay was performed by using 0.9% and 0.45% agarose for the bottom and the top layers, respectively; cells were incorporated in the top layer. Seaplaque low-melting temperature agarose was purchased from Lonza (Rockland, ME). Five hundred cells per well were utilized in both, the soft agar and the attached colony formation assays, which were performed in 6 well plates; cells were treated with vehicle as the control or with the desired drugs, which were administered twice per week for three weeks. The Crystal violet solution (0.1%) was utilized for colony staining in both assays. The colonies were counted after three weeks of treatment; the plate images were obtained by using Amersham Imager-600 reader (Piscataway, NJ).
(§2) Graphs in FIG. 8D illustrate the average numbers of colonies formed by established U251 and PDGx XD456 cell lines in the attached cell colony formation assay and in the soft agar colony formation assay, which represents anchorage independent cell growth.

XD456 cell line = test: soft agar colony formation assay; format: cell-based; details: 3 uM
Method: as §1, §2

primary human astrocytes = test: cleaved caspase-3 immunostaining in primary human astrocytes; format: cell-based; details: up to 15 uM
Method: At the end of experiments, neurons and astrocytes were rinsed briefly with PBS and fixed by using 4% paraformaldehyde, pH 7.4 for 13 minutes at room temperature. Triton X-100 (0.3%) in PBST buffer (i.e., PBS with 0.1% Tween 20) was used for cell permeabilization for 30 minutes at room temperature. Cells were rinsed with PBST buffer 3 times for 10 minutes after fixation. Blocking buffer (3% BSA, 22.52 mg/ml glycine in PBST) was used to block unspecific antibody binding for 30 minutes at room temperature. Primary cleaved caspase 3 antibody (Cell Signaling Technology; Danvers, MA) at 1:200 dilution in PBST buffer with 1% BSA was utilized overnight at 4° C. for cleaved caspase 3 staining. The next day, cells were rinsed four times for 10 minutes with PBST buffer and then were incubated with secondary antibody (Alexa Fluor 594, goat anti-rabbit IgG, Invitrogen (Carlsbad, CA), 1:2000/5000 dilution) in PBST buffer with 1% BSA for 1 hour at room temperature in the dark. Next, cells were rinsed with PBST buffer 4 times for 10 minutes in the dark. Cell nucleus were stained with DAPI (4′,6-diamidino-2-phenylindole). Cell images were obtained with EVOS Fl (Life Technologies; Eugene, OR) imaging system.
The cellular metabolism declined by about 44% after treatment with SRI-42127, 25 uM for 48 hours as shown by FIG. 5E. […]

cMET = cMET (Homo sapiens, UniProt P08581); test: SelectScreen kinase profiling, ZLYTE; format: biochemical
cMET, sequence (P08581 25-1390): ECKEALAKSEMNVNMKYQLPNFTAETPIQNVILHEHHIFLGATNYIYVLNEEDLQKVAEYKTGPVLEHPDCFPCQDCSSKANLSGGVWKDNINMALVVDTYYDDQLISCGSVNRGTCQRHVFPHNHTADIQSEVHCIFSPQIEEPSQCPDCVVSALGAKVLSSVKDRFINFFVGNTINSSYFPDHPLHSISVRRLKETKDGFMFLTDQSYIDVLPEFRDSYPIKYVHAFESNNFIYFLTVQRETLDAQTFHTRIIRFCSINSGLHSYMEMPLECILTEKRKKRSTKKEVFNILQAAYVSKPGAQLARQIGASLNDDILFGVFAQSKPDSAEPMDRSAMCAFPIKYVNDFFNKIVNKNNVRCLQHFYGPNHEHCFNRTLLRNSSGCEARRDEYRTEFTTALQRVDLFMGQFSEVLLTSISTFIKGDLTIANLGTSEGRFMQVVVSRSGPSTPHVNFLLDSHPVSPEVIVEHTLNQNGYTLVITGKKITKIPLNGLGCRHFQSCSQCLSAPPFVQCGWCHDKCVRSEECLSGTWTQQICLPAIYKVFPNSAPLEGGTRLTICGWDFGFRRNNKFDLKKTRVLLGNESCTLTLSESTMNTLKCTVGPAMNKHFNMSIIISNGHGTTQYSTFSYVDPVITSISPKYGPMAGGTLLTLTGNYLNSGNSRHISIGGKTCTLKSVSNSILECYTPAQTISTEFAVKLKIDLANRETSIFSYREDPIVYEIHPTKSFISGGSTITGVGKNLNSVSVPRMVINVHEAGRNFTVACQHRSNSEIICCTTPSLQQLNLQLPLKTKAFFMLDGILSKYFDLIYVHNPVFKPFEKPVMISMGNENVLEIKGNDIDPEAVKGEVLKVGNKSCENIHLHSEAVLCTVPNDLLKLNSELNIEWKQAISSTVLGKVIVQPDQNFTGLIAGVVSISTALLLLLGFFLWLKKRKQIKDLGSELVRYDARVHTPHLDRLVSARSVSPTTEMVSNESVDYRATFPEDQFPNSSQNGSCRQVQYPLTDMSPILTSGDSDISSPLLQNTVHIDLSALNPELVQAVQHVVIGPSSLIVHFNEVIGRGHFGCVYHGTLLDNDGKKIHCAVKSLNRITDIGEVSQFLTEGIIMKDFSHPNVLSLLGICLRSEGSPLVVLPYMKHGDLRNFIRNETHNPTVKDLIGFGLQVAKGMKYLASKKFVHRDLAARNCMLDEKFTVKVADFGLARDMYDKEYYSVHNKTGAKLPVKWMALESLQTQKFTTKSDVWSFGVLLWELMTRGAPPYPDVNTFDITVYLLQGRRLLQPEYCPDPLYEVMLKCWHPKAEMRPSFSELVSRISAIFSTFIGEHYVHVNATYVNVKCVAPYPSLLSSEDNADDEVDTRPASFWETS
Method: (§3) The kinase inhibitory potentials of compounds as described herein (e.g., SRI-42127 and SRI-41664) were evaluated by ThermoFisher Scientific's SelectScreen™ Kinase Profiling Service. The following kinase inhibitory assays were utilized: ZLYTE (Madison, WI) for NTRK1, PIM1, and cMET kinases; LanthaScreen Binding (Madison, WI) for AAK1 kinase; and Adapta (Madison, WI) for IRAK1 kinase.

PIM1 = PIM1 (Homo sapiens, UniProt P11309); test: SelectScreen kinase profiling, ZLYTE; format: biochemical
PIM1, sequence (P11309 whole entry): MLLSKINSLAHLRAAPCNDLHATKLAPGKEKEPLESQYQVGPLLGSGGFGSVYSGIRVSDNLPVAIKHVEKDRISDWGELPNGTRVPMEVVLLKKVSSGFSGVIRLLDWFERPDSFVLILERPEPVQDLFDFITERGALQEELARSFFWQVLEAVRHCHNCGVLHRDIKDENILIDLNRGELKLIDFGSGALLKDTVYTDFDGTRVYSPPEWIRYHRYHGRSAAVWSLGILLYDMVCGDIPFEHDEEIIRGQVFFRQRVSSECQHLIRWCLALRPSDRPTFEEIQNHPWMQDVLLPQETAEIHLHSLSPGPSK
Method: as §3

TRKA (NTRK1) = TRKA (NTRK1) (Homo sapiens, UniProt P04629); test: SelectScreen kinase profiling, ZLYTE; format: biochemical
TRKA (NTRK1), sequence (P04629 33-796): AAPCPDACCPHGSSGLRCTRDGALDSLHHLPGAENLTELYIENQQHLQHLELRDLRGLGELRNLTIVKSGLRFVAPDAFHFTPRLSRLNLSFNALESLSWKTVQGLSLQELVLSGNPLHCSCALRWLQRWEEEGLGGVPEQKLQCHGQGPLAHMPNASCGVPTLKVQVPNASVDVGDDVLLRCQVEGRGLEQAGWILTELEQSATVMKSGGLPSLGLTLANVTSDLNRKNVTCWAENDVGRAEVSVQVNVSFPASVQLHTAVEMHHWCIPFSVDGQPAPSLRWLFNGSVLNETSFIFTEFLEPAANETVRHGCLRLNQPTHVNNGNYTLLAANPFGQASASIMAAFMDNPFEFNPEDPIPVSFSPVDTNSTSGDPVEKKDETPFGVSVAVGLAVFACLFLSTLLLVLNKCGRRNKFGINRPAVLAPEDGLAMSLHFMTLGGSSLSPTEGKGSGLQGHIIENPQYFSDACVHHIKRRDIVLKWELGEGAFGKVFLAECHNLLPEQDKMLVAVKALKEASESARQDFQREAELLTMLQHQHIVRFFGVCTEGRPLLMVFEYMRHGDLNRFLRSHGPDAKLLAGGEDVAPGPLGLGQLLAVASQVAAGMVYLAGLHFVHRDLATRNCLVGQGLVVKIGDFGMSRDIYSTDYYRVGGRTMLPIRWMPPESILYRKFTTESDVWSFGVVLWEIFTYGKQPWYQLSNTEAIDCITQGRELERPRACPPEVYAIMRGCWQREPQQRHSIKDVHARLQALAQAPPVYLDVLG
Method: as §3

## CN(c1ccc2ncc(-c3ccc4cn[nH]c4c3)n2n1)C1CCOCC1 [Compound 19]
[1]
  suppression of mRNA for IL-1β, IL-6, CXCL1, and CCL2: 3-4 fold
[1]; 1.0 μM
  increase of IL-10 mRNA: ~3 fold
In vitro
  half-life: 8.6 min
Spinal cord injury; 15 mg/kg every 8 hours for 4 days, stereology 2 weeks post injury
  increase in surviving neurons in the epicenter of injury: > 2 fold
Spinal cord injury; 4 weeks post SCI (FIG. 21, Panel B)
  increase in neuronal counts by stereology: > 50%
HuR
  HuR inhibition activity (in words): active
HuR; Concn 50 uM
  HuR N/C Imax % Inh: 90%
HuR; U251 cells co-expressing HuR-Nluc and HuR-Cluc, 6 hours of treatment, read-out: HuR IC50
  IC50: 1200 ± 200 nM
HuR; U251 with dox-inducible HuR-dimerization reporters, after increase in HuR dimerization by two fold, 6 hours, read-out: IC50 for inhibition of HuR dimerization
  IC50: 1900 ± 100 nM
HuR; U251 with dox-inducible HuR-dimerization reporters, before increase in HuR dimerization, 6 hours, read-out: IC50 for inhibition of HuR dimerization
  IC50: 1200 ± 100 nM
HuR; after 6 hours of cell treatment
  maximum inhibition of HuR dimerization: 90±1%
HuR; split luciferase HuR dimerization assay, compounds administered for 6 hours, read-out: HuR IC50
  IC50: 1500 nM
U251 cell line
  number of colonies: 90+70
XD456 cell line
  number of colonies: 39+6
Primary human astrocytes
  cleaved caspase-3 activation: significant alterations in cleaved caspase-3 activation were not observed
cMET
  IC50: > 10000 nM
PIM1
  IC50: 668 nM
TRKA (NTRK1)
  IC50: 117 nM
